From EP2717965B1, “USE OF EPSILON-POLY-L-LYSINE FOR INCREASING THE BIOAVAILABILITY OF ANTIMICROBIAL PEPTIDES IN THE HUMAN SKIN” (Beiersdorf AG, priority 2011, dated 2017)
Like-named read-outs stand apart in the source and are kept apart here.

What was measured:
[1] = test system: hBD3; conditions: 50 µl of 1% solution in Citratpuffer pH 6 on inner forearm, 4h, rinse with 0,5 ml buffer; control Citratpuffer
Description: 50 µl einer 1%igen wässrigen gepufferten Lösung (Citratpuffer pH 6)von ePL wurden auf die Innenseite des Unterarms von Probanden gegeben. Als Kontrolle diente die Applikation von Citratpuffer ohne ePL. Nach 4h Inkubation wurden die Hautareale mit 0,5 ml Pufferlösung gespült und die Konzentration hBD3 im Eluat mit Hilfe eines ELISAs quantifiziert.
Als Kontrolle diente Citratpuffer, in dem die Wirkstoffe gelöst wurden. (n=8)

[2] = test system: hBD3; test: hBD3 secretion of cultured human epidermal keratinocytes, ELISA of cell culture supernatant; format: cell-based, humane epidermale Keratinozyten; conditions: 24 Stunden incubation
Description: In vitro kultivierte humane epidermale Keratinozyten wurden in Zellkultur Medium mit ε-Poly-L-Lysin in einem Konzentrationsbereich von 0,001-0,1% für 24 Stunden inkubiert. Anschließend wurde die Konzentration an hBD3 im Zellkulturüberstand mittels ELISA quantifiziert.
Abb. 1: Dosisabhängige hBD3 Expression von humanen epidermalen Keratinozyten, die über einen Zeitraum von 24 Stunden mit ePL kultiviert wurden.
Abbildung 1 zeigt die dosisabhängige hBD3 Freisetzung von mit ePL inkubierten Keratinozyten. Kontrollzellen zeigten nur eine geringfüge basale hBD3 Menge.

[3] = test system: hBD3; test: hBD3 in forearm skin rinses of volunteers after topical application, ELISA of eluate; format: in vivo, Probanden; conditions: 50 µl of 1% solution in Citratpuffer pH 6 on inner forearm, 4h, rinse with 0,5 ml buffer; control Citratpuffer
Description: Abb. […] Als Kontrolle wurde Citratpuffer appliziert. (n=7)

Question: Which hBD3-Steigerung [1] does the source give for NCC(=O)O [Glycin] here?
Answer: nur beim peptidisch verknüpften Lysin

Question: For NCCCC[C@H](N)C(=O)O [Lysin, L-Lysin], which hBD3-Steigerung [1] is on record?
Answer: nicht aber bei der freien Aminosäure eine hBD3-Steigerung

Question: What does the source list for “Poly[imino[(2S)-2-amino-1-oxo-1,6-hexandiyl]] [ePL]”?
Answer: hBD3 Sekretion ([2]; 0,01% und 0,1% in cell culture medium, compared with 0,001%): steigerte nochmals die hBD3 Sekretion deutlich; hBD3 Sekretion der Keratinozyten ([2]; 0,001% in cell culture medium, versus control cells): signifikante Erhöhung (p<0,001); hBD3-Steigerung [3]: gleichermaßen wirksam

Question: How did the hBD3-Steigerung [3] turn out when alpha-Polylysin was run?
Answer: gleichermaßen wirksam
